Data reported in PMC9229919, “4-Aminoquinoline-Based Adamantanes as Potential Anticholinesterase Agents in Symptomatic Treatment of Alzheimer’s Disease” (Pharmaceutics, 2022).

Columns and labels:
recombinant human AChE = molecular target: T1, recombinant human AChE (Homo sapiens, UniProt P22303); assay: biochemical; format: biochemical; conditions: for IS: IS = Ki(BChE)/Ki(AChE), IS > 1 selective to AChE; for Ki: ± standard error, 25 °C, ATCh substrate, read-out: Ki AChE
T1 construct: gift of Dr Florian Nachon (Armed Forces Biomedical Research Institute, Brétigny-sur-Orge, France)
Method in brief: (§1)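 Modified Ellman assay with acetylthiocholine and DTNB in 0.1 M sodium phosphate pH 7.4 (enzymes diluted with 0.1% BSA), ≤0.2% DMSO, 25 °C. At least three inhibitor concentrations per substrate level; Ki,app from Hunter–Downs equation, Ki from y-intercept and inhibition type from Ki,app vs [S].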

purified human BChE = molecular target: T2, purified human BChE (Homo sapiens, UniProt P06276); assay: biochemical; format: biochemical; conditions: for Ki: ± standard error, 25 °C, ATCh substrate, read-out: Ki BChE
T2 construct: possibly also a gift of Dr Florian Nachon (the sentence is ambiguous)
Method in brief: as §1

[1] = Ferric reducing antioxidant power (FRAP) assay; conditions: mean ± standard error of three experiments;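 further: expressed as µM Fe2+ equivalents from an FeSO4·7H2O standard curve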
Method in brief: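 Compounds at 10 and 100 µM were mixed with FRAP reagent (300 mM acetate buffer pH 3.6, TPTZ in HCl, FeCl3, 10:1:1) and incubated 60 min at 37 °C. Fe^2+-TPTZ formation read at 593 nm against a blank. Values derived from an Fe2SO4·7H2O standard curve, three independent experiments.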

[2] = Reverse-phase thin-layer chromatographic lipophilicity (RF, RM0); format: physicochemical; conditions: for RM0: intercept of RM = RM0 + bC; for b: slope of RM = RM0 + bC; for RF, Methanol/Water/Hydrochloric acid (conc.), mobile phase I / RF, Dioxane/Water/Hydrochloric acid (conc.), mobile phase II / RF, Methanol/Water/Hydrochloric acid (conc.), mobile phase II / RF, Acetone/Water/Hydrochloric acid (conc.), mobile phase III / RF, Dioxane/Water/Hydrochloric acid (conc.), mobile phase III / RF, Methanol/Water/Hydrochloric acid (conc.), mobile phase III / RF, Dioxane/Water/Hydrochloric acid (conc.), mobile phase IV / RF, Acetone/Water/Hydrochloric acid (conc.), mobile phase IV / RF, Methanol/Water/Hydrochloric acid (conc.), mobile phase IV / RF, Acetone/Water/Hydrochloric acid (conc.), mobile phase IX / RF, Methanol/Water/Hydrochloric acid (conc.), mobile phase IX / RF, Dioxane/Water/Hydrochloric acid (conc.), mobile phase V / RF, Acetone/Water/Hydrochloric acid (conc.), mobile phase V / RF, Methanol/Water/Hydrochloric acid (conc.), mobile phase V / RF, Dioxane/Water/Hydrochloric acid (conc.), mobile phase VI / RF, Acetone/Water/Hydrochloric acid (conc.), mobile phase VI / RF, Methanol/Water/Hydrochloric acid (conc.), mobile phase VI / RF, Acetone/Water/Hydrochloric acid (conc.), mobile phase VII / RF, Methanol/Water/Hydrochloric acid (conc.), mobile phase VII / RF, Acetone/Water/Hydrochloric acid (conc.), mobile phase VIII / RF, Methanol/Water/Hydrochloric acid (conc.), mobile phase VIII: RP-18 silica; for RF, Methanol/Water/Hydrochloric acid (conc.), mobile phase I: I = 90%MeOH/5%H2O/5%HCl; for RF, Dioxane/Water/Hydrochloric acid (conc.), mobile phase II: II = 80%Dioxane/15%H2O/5%HCl; for RF, Methanol/Water/Hydrochloric acid (conc.), mobile phase II: II = 85%MeOH/10%H2O/5%HCl; for RF, Acetone/Water/Hydrochloric acid (conc.), mobile phase III: III = 70%AC/25%H2O/5%HCl; for RF, Dioxane/Water/Hydrochloric acid (conc.), mobile phase III: III = 70%Dioxane/25%H2O/5%HCl; for RF, Methanol/Water/Hydrochloric acid (conc.), mobile phase III: III = 80%MeOH/15%H2O/5%HCl; for RF, Dioxane/Water/Hydrochloric acid (conc.), mobile phase IV: IV = 60%Dioxane/35%H2O/5%HCl; for RF, Acetone/Water/Hydrochloric acid (conc.), mobile phase IV: IV = 65%AC/30%H2O/5%HCl; for RF, Methanol/Water/Hydrochloric acid (conc.), mobile phase IV: IV = 75%MeOH/20%H2O/5%HCl; for RF, Acetone/Water/Hydrochloric acid (conc.), mobile phase IX: IX = 40%AC/55%H2O/5%HCl; for RF, Methanol/Water/Hydrochloric acid (conc.), mobile phase IX: IX = 50%MeOH/45%H2O/5%HCl; for RF, Dioxane/Water/Hydrochloric acid (conc.), mobile phase V: V = 50%Dioxane/45%H2O/5%HCl; for RF, Acetone/Water/Hydrochloric acid (conc.), mobile phase V: V = 60%AC/35%H2O/5%HCl; for RF, Methanol/Water/Hydrochloric acid (conc.), mobile phase V: V = 70%MeOH/25%H2O/5%HCl; for RF, Dioxane/Water/Hydrochloric acid (conc.), mobile phase VI: VI = 40%Dioxane/55%H2O/5%HCl; for RF, Acetone/Water/Hydrochloric acid (conc.), mobile phase VI: VI = 55%AC/40%H2O/5%HCl; for RF, Methanol/Water/Hydrochloric acid (conc.), mobile phase VI: VI = 65%MeOH/30%H2O/5%HCl; for RF, Acetone/Water/Hydrochloric acid (conc.), mobile phase VII: VII = 50%AC/45%H2O/5%HCl; for RF, Methanol/Water/Hydrochloric acid (conc.), mobile phase VII: VII = 60%MeOH/35%H2O/5%HCl; for RF, Acetone/Water/Hydrochloric acid (conc.), mobile phase VIII: VIII = 45%AC/50%H2O/5%HCl; for RF, Methanol/Water/Hydrochloric acid (conc.), mobile phase VIII: VIII = 55%MeOH/40%H2O/5%HCl
Method in brief: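 Reverse-phase TLC using mobile phases of methanol, acetone or dioxane with water and hydrochloric acid. Methanol varied in 10% steps; development distance 4.5 cm, ambient temperature (22±2 °C). RF measured and RM0 derived from retention.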

[3] = Acetone/Water/Hydrochloric acid (conc.)
[4] = Dioxane/Water/Hydrochloric acid (conc.)
[5] = Methanol/Water/Hydrochloric acid (conc.)

T1 sequence (P22303 32-614): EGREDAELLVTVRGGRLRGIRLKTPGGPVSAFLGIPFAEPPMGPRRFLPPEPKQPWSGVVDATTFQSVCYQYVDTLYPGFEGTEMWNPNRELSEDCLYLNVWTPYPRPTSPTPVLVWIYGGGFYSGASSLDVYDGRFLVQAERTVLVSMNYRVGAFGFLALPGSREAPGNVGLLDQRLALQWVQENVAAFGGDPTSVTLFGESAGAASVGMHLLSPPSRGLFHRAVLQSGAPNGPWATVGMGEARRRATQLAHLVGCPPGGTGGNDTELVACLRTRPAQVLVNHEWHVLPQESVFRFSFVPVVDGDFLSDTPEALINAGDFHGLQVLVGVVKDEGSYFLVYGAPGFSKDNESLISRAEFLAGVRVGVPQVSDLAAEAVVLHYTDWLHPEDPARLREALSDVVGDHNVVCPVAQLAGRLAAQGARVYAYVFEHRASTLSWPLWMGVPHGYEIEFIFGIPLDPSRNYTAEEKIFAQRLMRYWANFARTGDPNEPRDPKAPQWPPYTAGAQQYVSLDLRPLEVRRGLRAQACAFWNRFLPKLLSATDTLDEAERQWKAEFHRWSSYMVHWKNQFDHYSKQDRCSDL
T2 sequence (P06276 29-602): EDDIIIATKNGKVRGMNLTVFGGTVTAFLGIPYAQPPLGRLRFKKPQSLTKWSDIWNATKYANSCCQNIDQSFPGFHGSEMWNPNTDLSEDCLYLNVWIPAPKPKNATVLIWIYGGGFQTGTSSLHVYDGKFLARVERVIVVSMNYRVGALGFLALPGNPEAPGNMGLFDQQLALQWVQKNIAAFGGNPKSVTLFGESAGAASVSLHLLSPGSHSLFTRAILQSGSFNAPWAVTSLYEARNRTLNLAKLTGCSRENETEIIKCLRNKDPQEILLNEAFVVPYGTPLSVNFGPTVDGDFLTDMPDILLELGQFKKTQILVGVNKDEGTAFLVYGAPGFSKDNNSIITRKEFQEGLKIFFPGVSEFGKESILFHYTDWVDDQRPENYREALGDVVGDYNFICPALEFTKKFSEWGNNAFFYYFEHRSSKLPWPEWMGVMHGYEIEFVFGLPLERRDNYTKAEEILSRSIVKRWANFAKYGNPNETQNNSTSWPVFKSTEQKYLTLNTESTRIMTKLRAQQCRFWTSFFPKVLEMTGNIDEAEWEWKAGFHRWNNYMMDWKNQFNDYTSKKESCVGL

Structure (SMILES) | IS (recombinant human AChE) | Ki (recombinant human AChE) [nM] | Ki (purified human BChE) [nM] | FRAP ([1]; 10 µM compound) [µM] | FRAP ([1]; 100 µM compound) [µM] | RM0 [2, 3] | b [2, 3] | RM0 [2, 4] | b [2, 4] | RM0 [2, 5] | b [2, 5] | RF, Methanol/Water/Hydrochloric acid (conc.), mobile phase I [2] | RF, Dioxane/Water/Hydrochloric acid (conc.), mobile phase II [2] | RF, Methanol/Water/Hydrochloric acid (conc.), mobile phase II [2] | RF, Acetone/Water/Hydrochloric acid (conc.), mobile phase III [2] | RF, Dioxane/Water/Hydrochloric acid (conc.), mobile phase III [2] | RF, Methanol/Water/Hydrochloric acid (conc.), mobile phase III [2] | RF, Dioxane/Water/Hydrochloric acid (conc.), mobile phase IV [2] | RF, Acetone/Water/Hydrochloric acid (conc.), mobile phase IV [2] | RF, Methanol/Water/Hydrochloric acid (conc.), mobile phase IV [2] | also measured
CC(CCNCCC12CC3CC(CC(C3)C1)C2)Nc1ccnc2cc(Cl)ccc12 (centres unmarked) [Compound 14] | 0.1 | 1900 ± 100 | 150 ± 10 | 7.6 ± 2.3 | 86 ± 8 | 2.236 | 3.396 | 1.306 | 2.3979 | 3.293 | 4.124 | 0.67 | 0.78 | 0.62 | 0.53 | 0.69 | 0.45 | 0.66 | 0.5 | 0.42 | preference for BChE (purified human BChE; BChE over AChE): 10 times; RF, Acetone/Water/Hydrochloric acid (conc.), mobile phase IX [2]: 0.08; RF, Methanol/Water/Hydrochloric acid (conc.), mobile phase IX [2]: 0.03; RF, Dioxane/Water/Hydrochloric acid (conc.), mobile phase V [2]: 0.45; RF, Acetone/Water/Hydrochloric acid (conc.), mobile phase V [2]: 0.38; RF, Methanol/Water/Hydrochloric acid (conc.), mobile phase V [2]: 0.34; RF, Dioxane/Water/Hydrochloric acid (conc.), mobile phase VI [2]: 0.27; RF, Acetone/Water/Hydrochloric acid (conc.), mobile phase VI [2]: 0.33; RF, Methanol/Water/Hydrochloric acid (conc.), mobile phase VI [2]: 0.25; RF, Acetone/Water/Hydrochloric acid (conc.), mobile phase VII [2]: 0.25; RF, Methanol/Water/Hydrochloric acid (conc.), mobile phase VII [2]: 0.16; RF, Acetone/Water/Hydrochloric acid (conc.), mobile phase VIII [2]: 0.21; RF, Methanol/Water/Hydrochloric acid (conc.), mobile phase VIII [2]: 0.1
CC(CCNCC12CC3CC(CC(C3)C1)C2)Nc1ccnc2ccccc12 (centres unmarked) [Compound 15] | 0.9 | 740 ± 30 | 650 ± 40 | 9.3 ± 2.2 | 224 ± 21 | 1.742 | 2.801 | 0.8903 | 1.797 | 2.31 | 3.062 | 0.71 | 0.74 | 0.67 | 0.6 | 0.7 | 0.54 | 0.7 | 0.55 | 0.51 | RF, Acetone/Water/Hydrochloric acid (conc.), mobile phase IX [2]: 0.15; RF, Methanol/Water/Hydrochloric acid (conc.), mobile phase IX [2]: 0.11; RF, Dioxane/Water/Hydrochloric acid (conc.), mobile phase V [2]: 0.51; RF, Acetone/Water/Hydrochloric acid (conc.), mobile phase V [2]: 0.45; RF, Methanol/Water/Hydrochloric acid (conc.), mobile phase V [2]: 0.45; RF, Dioxane/Water/Hydrochloric acid (conc.), mobile phase VI [2]: 0.35; RF, Acetone/Water/Hydrochloric acid (conc.), mobile phase VI [2]: 0.4; RF, Methanol/Water/Hydrochloric acid (conc.), mobile phase VI [2]: 0.36; RF, Acetone/Water/Hydrochloric acid (conc.), mobile phase VII [2]: 0.35; RF, Methanol/Water/Hydrochloric acid (conc.), mobile phase VII [2]: 0.27; RF, Acetone/Water/Hydrochloric acid (conc.), mobile phase VIII [2]: 0.29; RF, Methanol/Water/Hydrochloric acid (conc.), mobile phase VIII [2]: 0.2
